Assay results from PMC10011573, “Development of novel broad-spectrum antimicrobial lipopeptides derived from plantaricin NC8 β” (Scientific Reports, 2023).
pEC50: −log10 of the molar value. Residues, ends and D or L forms follow the SMILES beside them. *: point of attachment. Heptanoyl = CCCCCCC(=O)*; Hexanoyl = CCCCCC(=O)*; Pentanoyl = CCCCC(=O)*

Tests used:
E. coli (K-12 MG1655) [1] = assay type: cell-based; settings: Table 6; K-12 MG1655; checkerboard assay, 50:50 PBS/LB-broth, 200 µL
S. aureus (ATCC 29213) = assay type: cell-based; settings: Table 6; ATCC 29213; checkerboard assay, 50:50 PBS/LB-broth, 200 µL
Protocol: The broth microdilution method was used to determine minimal inhibitory concentration (MIC) and minimal bactericidal concentration (MBC), in accordance with the EUCAST standards for the broth microdilution method. […] In brief, two-fold serial dilutions of the lipopeptides were performed in a 96-well plate in PBS, with a final volume of 100 µl per well, after which 100 µl of LB-broth media containing approximately 5 × 10^5 CFU/ml of bacteria was added to each well. The plate was then incubated for 20 h in 37 °C on a shaker (400 rpm). The effect of lipopeptide-antibiotic combinations was investigated by performing checkerboard assays. The assays were performed in accordance with the MIC and MBC tests conducted above, but with horizontal and longitudinal two-fold serial dilutions of the tested compounds. […] The fractional inhibitory concentration (FIC) and fractional bactericidal concentration (FBC) were calculated by the equation (MIC or MBC of peptide in combination/MIC or MBC of peptide alone) + (MIC or MBC of antibiotic in combination/MIC or MBC of antibiotic alone). […] All experiments were repeated at least three times.

[2] = Carboxyfluorescein release assay, bacterial liposome model; assay type: biochemical; settings: 75:25 POPC:POPG liposomes, 25 µM lipid, 10 mM PBS pH 7.4, 10^–5–10^2 µM peptide, 60 min, fluorescence, Hill fit, n = 3; read-out: EC50 Bacterial (concentration that triggers 50% CF release)
Protocol: (§1) Liposomes were prepared by thin-film hydration method. Lipids stock solutions (10 mg/ml in chloroform, Avanti Polar Lipids, Inc., Alabaster, United States) of the lipids 1-palmitoyl-2-oleoyl-sn-glycero-3-phosphocholine (POPC), 1-palmitoyl-2-oleoyl-sn-glycero-3-phospho-L-serine (POPS), 1-Hexadecanoyl-2-(9Z-Octadecenoyl)-sn-Glycero-3-Phosphoglycerol (POPG) and Cholesterol (Chol) were employed. Bacterial liposomes were prepared with a 75:25 ratio of POPC:POPG and mammalian liposomes were prepared with a 65:5:30 ratio of POPC:POPS:Chol. Lipid solutions were thoroughly homogenised, and the solvent was evaporated with the use of a dry N2 steam to yield a lipid cake. […] The lipid film was subsequently hydrated with a 5(6)-CF solution (50 mM CF, 10 mM PBS, 90 mM NaCl, pH 7.4). Following a 10 min incubation on orbital shaker (50 min^−1), the solution was vortexed for 60 s on medium speed. A mini extruder (Avanti Polar Lipids, Inc., United States) was employed and 21 extrusions were performed through a 0.1 µm filter membrane (Nuclepore track-etched hydrophilic membrane, Cytiva, Whatman, MA, United States), resulting in monodispersed unilamellar liposomes. Directly before use the liposomes were purified from unencapsulated CF by filtration through a gel filtration column (PD Minitrap G-25 column, Cytiva, United States), against PBS buffer (10 mM, pH 7.4).
(§2) Peptide and lipopeptide activity towards liposome models were evaluated using a carboxyfluorescein (CF) release assay. Liposomes were diluted in PBS (10 mM, pH 7.4) to a final lipid concentration of 25 µM and incubated with peptides (10^–5–10^2 µM) in a 96-well plate (n = 3). CF release was monitored using an Infinite M1000 PRO plate reader every 2.5 min for 1 h. Full (100%) CF release was obtained by addition of 1% Triton X-100 solution followed by 10 min incubation. CF release percentage was evaluated according to the formula 100 * (F − F0)/(FT − F0), where F indicates the instantaneous fluorescence, FT the total fluorescence and F0 the background fluorescence prior to peptide addition. Data were fitted to a Hill-1 curve using MATLAB R2019a (The MathWorks Inc., Natick, Massachusetts, United States) and the half maximum effective concentration (EC50) was extracted.

[3] = Carboxyfluorescein release assay, mammalian liposome model; assay type: biochemical; settings: 65:5:30 POPC:POPS:Chol. liposomes, 25 µM lipid, 10 mM PBS pH 7.4, 10^–5–10^2 µM peptide, 60 min, fluorescence, Hill fit, n = 3; read-out: EC50 Mammalial (concentration that triggers 50% CF release)
Protocol: as §1, §2

E. faecium = settings: 20 h
Protocol: (§3) S. aureus (ATCC 29213, MSSA, ATCC, Manassas, VA), E. coli (K-12 MG1655) and clinical isolates of S. aureus, E. coli, E. faecium, K. pneumoniae, A. baumannii, P. aeruginosa and E. cloacae obtained from the Department of Laboratory Medicine at Örebro University Hospital were streaked on Luria–Bertani (LB) agar plates and incubated at 37 °C overnight. Single colonies were inoculated into 5 ml of LB broth and incubated on a shaker (400 rpm) at 37 °C overnight. The bacterial concentrations were determined by viable count and were adjusted to correlate with approximately 10^9 CFU/ml.
(§4) The broth microdilution method was used to determine minimal inhibitory concentration (MIC) and minimal bactericidal concentration (MBC), in accordance with the EUCAST standards for the broth microdilution method. Two-fold serial dilutions of the lipopeptides were used, and the final concentrations ranged from 0.19 to 100 µM. In brief, two-fold serial dilutions of the lipopeptides were performed in a 96-well plate in PBS, with a final volume of 100 µl per well, after which 100 µl of LB-broth media containing approximately 5 × 10^5 CFU/ml of bacteria was added to each well. The plate was then incubated for 20 h in 37 °C on a shaker (400 rpm). The effect of lipopeptide-antibiotic combinations was investigated by performing checkerboard assays. The assays were performed in accordance with the MIC and MBC tests conducted above, but with horizontal and longitudinal two-fold serial dilutions of the tested compounds. […] The fractional inhibitory concentration (FIC) and fractional bactericidal concentration (FBC) were calculated by the equation (MIC or MBC of peptide in combination/MIC or MBC of peptide alone) + (MIC or MBC of antibiotic in combination/MIC or MBC of antibiotic alone). Synergy was defined as FIC/FBC ≤ 0.5, additive when 0.5 < FIC/FBC ≤ 1, indifferent when 1 < FIC/FBC < 2 and antagonistic when FIC/FBC ≥ 2. All experiments were repeated at least three times.

E. cloacae = settings: 20 h
Protocol: as §3, §4

P. aeruginosa = settings: 20 h
Protocol: as §3, §4

E. coli (K-12 MG1655) [4] = settings: Table 3; K-12 MG1655; broth microdilution, 50:50 PBS/LB-broth, 200 µL, 20 h, 37 °C
Protocol: as §3, §4

K. pneumoniae = settings: 20 h
Protocol: as §3, §4

[5] = tested on: S. aureus (ATCC 29213, MSSA); settings: ATCC 29213, 20 h
Protocol: as §3, §4

A. baumannii = settings: 20 h
Protocol: as §3, §4

human erythrocytes = test: Hemolytic activity; assay type: cell-based; settings: 15% suspension in PBS, 1 h, 37 °C, absorbance 540 nm, highest tested concentration 100 µM
Protocol: The hemolytic activity of the lipopeptides was investigated by collecting blood from healthy volunteers in heparinized vacutainers. Briefly, the blood was centrifuged at 600 × g for 5 min and the erythrocyte pellet was washed three times in PBS. The cells were then suspended in PBS and added to 96-well plates (15% erythrocyte suspension/well), containing the lipopeptides with two-fold serial dilution. The plates were incubated for 1 h at 37 °C followed by centrifugation for 5 min at 900×g and absorbance measurement of the supernatants at 540 nm. Hemolytic activity (%) was calculated by subtracting the negative control from all values and normalization against the positive control (0.5% Triton X-100), that was set to 100%. All experiments, each in duplicate, were repeated three times.

E. coli MIC, antibiotic alone (E. coli (K-12 MG1655) [1]) [µg/mL] | pEC50 [2] | pEC50 [3] | E. coli MIC (E. coli (K-12 MG1655) [4]) [µM] | S. aureus MIC [5] [µM] | SMILES | E. coli MBC, antibiotic alone (E. coli (K-12 MG1655) [1]) [µg/mL] | E. coli MBC (E. coli (K-12 MG1655) [4]) [µM] | S. aureus MBC [5] [µM] | HC, hemolytic concentration at 5% hemolytic activity (human erythrocytes) [µM] | also measured
0.5 |  |  |  |  | CO/N=C(\C(=O)N[C@@H]1C(=O)N2C(C(=O)O)=C(COC(C)=O)CS[C@H]12)c1csc(N)n1 [Cefotaxim] | 0.5 |  |  |  | 
0.125 |  |  |  |  | O=C(O)c1cn(C2CC2)c2cc(N3CCNCC3)c(F)cc2c1=O [Ciprofloxacin] | 0.125 |  |  |  | S. aureus MBC, antibiotic alone (S. aureus (ATCC 29213)): 0.25 µg/mL; S. aureus MIC, antibiotic alone (S. aureus (ATCC 29213)): 0.25 µg/mL
1 |  |  |  |  | CNC(C)C1CCC(N)C(OC2C(N)CC(N)C(OC3OCC(C)(O)C(NC)C3O)C2O)O1 (stereo not drawn) [Gentamicin] | 1 |  |  |  | 
 | 6.80 | 5.45 | 6.2 | 3.1 | CCCCCC(=O)N[C@@H](CC(C)C)C(=O)NCC(=O)N[C@H](C(=O)N[C@@H](CCCCN)C(=O)N[C@H](C(=O)N[C@@H](CC(C)C)C(=O)N[C@@H](Cc1c[nH]c2ccccc12)C(=O)N[C@@H](CO)C(=O)N[C@@H](C)C(=O)N[C@@H](Cc1ccc(O)cc1)C(=O)N[C@@H](CCCCN)C(=O)N[C@@H](Cc1c[nH]cn1)C(=O)N[C@@H](CCCNC(=N)N)C(=O)N[C@@H](CCCCN)C(=O)N[C@H](C(=O)N[C@H](C(N)=O)[C@@H](C)CC)[C@@H](C)O)[C@@H](C)CC)[C@@H](C)CC [L-6-C6] (Hexanoyl-LGIKILWSAYKHRKTI-NH2) |  | 6.2 | 6.2 | > 100 | 
 | 6.92 | 5.96 | 6.2 | 1.5 | CCCCCCC(=O)N[C@@H](CC(C)C)C(=O)NCC(=O)N[C@@H](CC(C)C)C(=O)N[C@@H](CCCCN)C(=O)N[C@@H](CC(C)C)C(=O)N[C@@H](CC(C)C)C(=O)N[C@@H](Cc1c[nH]c2ccccc12)C(=O)N[C@@H](CO)C(=O)N[C@@H](C)C(=O)N[C@@H](Cc1ccc(O)cc1)C(=O)N[C@@H](CCCCN)C(=O)N[C@@H](Cc1c[nH]cn1)C(=O)N[C@@H](CCCNC(=N)N)C(=O)N[C@@H](CCCCN)C(=O)N[C@H](C(=O)N[C@@H](CC(C)C)C(N)=O)[C@@H](C)O [L-6-C7-Leu] (Heptanoyl-LGLKLLWSAYKHRKTL-NH2) |  | 6.2 | 1.5 | 30 | 
 |  |  |  |  | CO[C@H]1/C=C/O[C@@]2(C)Oc3c(C)c(O)c4c(O)c(c(/C=N/N5CCN(C)CC5)c(O)c4c3C2=O)NC(=O)/C(C)=C\C=C\[C@H](C)[C@H](O)[C@@H](C)[C@@H](O)[C@@H](C)[C@H](OC(C)=O)[C@@H]1C [Rifampicin] | 100 |  |  |  | S. aureus MBC, antibiotic alone (S. aureus (ATCC 29213)): 0.062 µg/mL; S. aureus MIC, antibiotic alone (S. aureus (ATCC 29213)): 0.062 µg/mL

SMILES | E. coli MIC, antibiotic alone (E. coli (K-12 MG1655) [1]) [µg/mL] | pEC50 [2] | pEC50 [3] | E. coli MIC (E. coli (K-12 MG1655) [4]) [µM] | S. aureus MIC [5] [µM] | E. coli MBC, antibiotic alone (E. coli (K-12 MG1655) [1]) [µg/mL] | E. coli MBC (E. coli (K-12 MG1655) [4]) [µM] | S. aureus MBC [5] [µM] | HC, hemolytic concentration at 5% hemolytic activity (human erythrocytes) [µM] | also measured
CCCCC(=O)N[C@@H](CC(C)C)C(=O)NCC(=O)N[C@@H](CC(C)C)C(=O)N[C@@H](CCCCN)C(=O)N[C@@H](CC(C)C)C(=O)N[C@@H](CC(C)C)C(=O)N[C@@H](Cc1c[nH]c2ccccc12)C(=O)N[C@@H](CO)C(=O)N[C@@H](C)C(=O)N[C@@H](Cc1ccc(O)cc1)C(=O)N[C@@H](CCCCN)C(=O)N[C@@H](Cc1c[nH]cn1)C(=O)N[C@@H](CCCNC(=N)N)C(=O)N[C@@H](CCCCN)C(=O)N[C@H](C(=O)N[C@@H](CC(C)C)C(N)=O)[C@@H](C)O [L-6-C5-Leu] (Pentanoyl-LGLKLLWSAYKHRKTL-NH2) |  | 6.96 | 5.40 | 6.2 | 3.1 |  | 6.2 | 3.1 | > 100 | MBC (E. faecium): 6.3 µM; MIC (E. faecium): 3.1 µM; MBC (E. cloacae): > 100 µM; MIC (E. cloacae): > 100 µM; MBC (P. aeruginosa): 50 µM; MIC (P. aeruginosa): 25 µM; MBC (K. pneumoniae): 50 µM; MIC (K. pneumoniae): 25 µM; MBC (A. baumannii): 3.1 µM; MIC (A. baumannii): 3.1 µM
